Measured values taken from US6548242B2, “Process for the sterilization of biological compositions and the product thereby” (priority 1990, dated 2003).
“And” between values parts separate entries of the source, which are not always exact repeats. Equal values may be shown once.

Columns and labels:
[1] = system: cell-free vesicular stomatitis virus (VSV); type: cell-based
[2] = system: encephalomyocarditis virus (EMC); type: cell-based
bacteriophage M13 = type: cell-based
platelets = test: Platelet aggregation in response to collagen after treatment of platelet concentrate; type: cell-based; conditions: for Aggregation Response % Control / Agqregation Response % control: 25 μg/ml AMT; for % Untreated Control - Extent of Aggregation Response to Collagen, treated / % Untreated Control - Rate of Aggregation Response to Collagen, treated: 25 μg/ml AMT and 90 minutes of UVA in presence of flavonoid; for % Untreated Control - Extent of Aggregation Response to Collagen, treated / % Untreated Control - Rate of Aggregation Response to Collagen, treated / % Untreated Control - Extent of Aggregation Response to Collagen, untreated / % Untreated Control - Rate of Aggregation Response to Collagen, untreated: overnight storage; for % Untreated Control - Extent of Aggregation Response to Collagen, untreated / % Untreated Control - Rate of Aggregation Response to Collagen, untreated: flavonoid present, no AMT/UVA treatment
cell-associated VSV = type: cell-based, vesicular stomatitis virus
RBCCs = test: Extracellular (plasma) potassium of stored RBCCs; conditions: RBCC, 6.5 μM AlPcS4 + 44 J/cm^2 visible light + 4 mM GSH, 2 days
[3] = platelet conc., 7.5 mW/cm^2 UVA 30 min, quencher 2 mM
[4] = platelet conc., 7.5 mW/cm^2 UVA 30 min, quencher 4 mM
[5] = platelet conc., 7.5 mW/cm^2 UVA 30 min, quencher 10 mM
[6] = platelet conc., 7.5 mW/cm^2 UVA 60 min, quencher 2 mM
[7] = platelet conc., 7.5 mW/cm^2 UVA 60 min, quencher 4 mM
[8] = platelet conc., 7.5 mW/cm^2 UVA 90 min, quencher 2 mM
[9] = platelet conc., 7.5 mW/cm^2 UVA 90 min, quencher 4 mM
[10] = platelet conc., 7.5 mW/cm^2 UVA 30 min, quencher 50 mM
[11] = platelet conc., 7.5 mW/cm^2 UVA 60 min, quencher 10 mM
[12] = platelet conc., 7.5 mW/cm^2 UVA 60 min, quencher 50 mM
[13] = platelet conc., 11 mW/cm^2 UVA 30 min, quencher 10 mM
[14] = platelet conc., 11 mW/cm^2 UVA 30 min, quencher 2 mM
[15] = platelet conc., 11 mW/cm^2 UVA 60 min, quencher 2 mM
[16] = platelet conc., 11 mW/cm^2 UVA 90 min, quencher 2 mM

O=C1O[C@H]([C@@H](O)CO)C(O)=C1O [Ascorbate, ascorbate]
Virus Kill (log10) VSV [1]: ≧6.5 log10 | Virus Kill (log10) EMC [2]: ≧7.7 log10 | Virus Kill (log10) M13 (bacteriophage M13): 4.7 log10

N[C@@H](CCC(=O)N[C@@H](CS)C(=O)NCC(=O)O)C(=O)O [Glutathione, glutathione]
Aggregation Response % Control (platelets; [3]): 80 % Control | Aggregation Response % Control (platelets; [4]): 80 % Control | Aggregation Response % Control (platelets; [5]): 75 % Control | Aggregation Response % Control (platelets; [6]): 60 % Control | Aggregation Response % Control (platelets; [7]): 55 % Control | Aggregation Response % Control (platelets; [8]): 40 % Control | Aggregation Response % Control (platelets; [9]): 25 % Control | Virus Inactivation (log10) Cell-Free VSV [1]: ≧6.0 log10 | Virus Kill (log10) M13 (bacteriophage M13): 4.4 log10

OCC(O)CO [Glycerol, glycerol]
Aggregation Response % Control (platelets; [3]): 90 % Control | Aggregation Response % Control (platelets; [4]): 95 % Control | Aggregation Response % Control (platelets; [5]): 80 % Control | Aggregation Response % Control (platelets; [10]): 85 % Control | Aggregation Response % Control (platelets; [6]): 50 % Control | Aggregation Response % Control (platelets; [7]): 55 % Control | Aggregation Response % Control (platelets; [11]): 50 % Control | Aggregation Response % Control (platelets; [12]): 50 % Control | Aggregation Response % Control (platelets; [9]): 35 % Control | Virus Kill (log10) M13 (bacteriophage M13): 6.6 log10

N[C@@H](Cc1c[nH]cn1)C(=O)O [Histidine, histidine]
Agqregation Response % control (platelets; platelet conc., 11 mW/cm^2 UVA 30 min, quencher 5 mM): 75 % control | Agqregation Response % control (platelets; [13]): 65 % control | Agqregation Response % control (platelets; platelet conc., 11 mW/cm^2 UVA 60 min, quencher 5 mM): 55 % control | Agqregation Response % control (platelets; platelet conc., 11 mW/cm^2 UVA 90 min, quencher 5 mM): 35 % control | Virus Kill (log10) Cell-free VSV [1]: 5.1 log10 and 4.8 log10 | Virus Kill (log10) M13 (bacteriophage M13): 4.0 log10

CN(C)c1ccc2nc3ccc(=[N+](C)C)cc-3sc2c1 [M8, methylene blue]
LOG10 VIRUS KILL VSV [1]: ≧5 LOG10

OC[C@@H](O)[C@@H](O)[C@H](O)[C@H](O)CO [Mannitol, mannitol]
Aggregation Response % Control (platelets; [3]): 95 % Control | Aggregation Response % Control (platelets; [4]): 95 % Control | Aggregation Response % Control (platelets; [5]): 91 % Control | Aggregation Response % Control (platelets; [10]): 85 % Control | Aggregation Response % Control (platelets; [6]): 60 % Control | Aggregation Response % Control (platelets; [7]): 58 % Control | Aggregation Response % Control (platelets; [11]): 56 % Control | Aggregation Response % Control (platelets; [12]): 55 % Control | Aggregation Response % Control (platelets; [8]): 32 % Control | Aggregation Response % Control (platelets; platelet conc., 7.5 mW/cm^2 UVA 90 min, quencher 50 mM): 30 % Control | aggregation response to collagen (platelets; platelet conc., 100 μg/ml AMT, 90 min UVA, 2 mM mannitol): no response at all | Virus Kill (log10) M13 (bacteriophage M13): 6.6 log10

N[C@@H](Cc1c[nH]c2ccccc12)C(=O)O [Tryptophan, tryptophan]
Agqregation Response % control (platelets; [14]): 70 % control | Agqregation Response % control (platelets; platelet conc., 11 mW/cm^2 UVA 30 min, quencher 4 mM): 60 % control | Agqregation Response % control (platelets; [13]): 45 % control | Agqregation Response % control (platelets; [15]): 50 % control | Agqregation Response % control (platelets; platelet conc., 11 mW/cm^2 UVA 60 min, quencher 4 mM): 45 % control | Agqregation Response % control (platelets; platelet conc., 11 mW/cm^2 UVA 60 min, quencher 10 mM): 20 % control | Agqregation Response % control (platelets; [16]): 30 % control | Agqregation Response % control (platelets; platelet conc., 11 mW/cm^2 UVA 90 min, quencher 4 mM): 20 % control | Agqregation Response % control (platelets; platelet conc., 11 mW/cm^2 UVA 90 min, quencher 10 mM): 0 % control

O=c1cc(-c2ccccc2)oc2cc(O)cc(O)c12 [chrysin]
% Untreated Control - Extent of Aggregation Response to Collagen, treated (platelets): 90 % Untreated Control | % Untreated Control - Rate of Aggregation Response to Collagen, treated (platelets): 85 % Untreated Control | % Untreated Control - Extent of Aggregation Response to Collagen, untreated (platelets): 100/100 % Untreated Control | % Untreated Control - Rate of Aggregation Response to Collagen, untreated (platelets): 100/100 % Untreated Control

COc1ccc([C@@H]2CC(=O)c3c(O)cc(O[C@@H]4O[C@H](CO[C@@H]5O[C@@H](C)[C@H](O)[C@@H](O)[C@H]5O)[C@@H](O)[C@H](O)[C@H]4O)cc3O2)cc1O [hesperidin]
% Untreated Control - Extent of Aggregation Response to Collagen, treated (platelets): 100 % Untreated Control | % Untreated Control - Rate of Aggregation Response to Collagen, treated (platelets): 86 % Untreated Control | % Untreated Control - Extent of Aggregation Response to Collagen, untreated (platelets): 98 % Untreated Control | % Untreated Control - Rate of Aggregation Response to Collagen, untreated (platelets): 90 % Untreated Control

C[C@@H]1O[C@@H](O[C@H]2[C@H](Oc3cc(O)c4c(c3)O[C@H](c3ccc(O)cc3)CC4=O)O[C@H](CO)[C@@H](O)[C@@H]2O)[C@H](O)[C@H](O)[C@H]1O [naringin]
% Untreated Control - Extent of Aggregation Response to Collagen, treated (platelets): 78 % Untreated Control | % Untreated Control - Rate of Aggregation Response to Collagen, treated (platelets): 61 % Untreated Control | % Untreated Control - Extent of Aggregation Response to Collagen, untreated (platelets): 90 % Untreated Control | % Untreated Control - Rate of Aggregation Response to Collagen, untreated (platelets): 83 % Untreated Control

O=c1c(O)c(-c2ccc(O)c(O)c2)oc2cc(O)cc(O)c12 [quercetin]
inactivation of cell-associated VSV (cell-associated VSV): ~6 log10 | % Untreated Control - Extent of Aggregation Response to Collagen, treated (platelets): 98/98 % Untreated Control | % Untreated Control - Rate of Aggregation Response to Collagen, treated (platelets): 98/98 % Untreated Control | % Untreated Control - Extent of Aggregation Response to Collagen, untreated (platelets): 100/100 % Untreated Control | % Untreated Control - Rate of Aggregation Response to Collagen, untreated (platelets): 100/100 % Untreated Control | Virus Kill (log10) VSV [1]: ≧6.5 log10 | Virus Kill (log10) EMC [2]: ≧7.7 log10 | Virus Kill (log10) M13 (bacteriophage M13): 5.0 log10

Cc1c(C)c2c(c(C)c1OP(=O)(O)O)CC[C@@](C)(CCC[C@H](C)CCC[C@H](C)CCCC(C)C)O2 [α-tocopherol phosphate]
Agqregation Response % control (platelets; platelet conc., 11 mW/cm^2 UVA 30 min, quencher 0.5 mM): 76 % control | Agqregation Response % control (platelets; platelet conc., 11 mW/cm^2 UVA 30 min, quencher 1.0 mM): 75 % control | Agqregation Response % control (platelets; [14]): 70 % control | Agqregation Response % control (platelets; platelet conc., 11 mW/cm^2 UVA 60 min, quencher 0.5 mM): 55 % control | Agqregation Response % control (platelets; platelet conc., 11 mW/cm^2 UVA 60 min, quencher 1.0 mM): 60 % control | Agqregation Response % control (platelets; [15]): 50 % control | Agqregation Response % control (platelets; platelet conc., 11 mW/cm^2 UVA 90 min, quencher 0.5 mM): 35 % control | Agqregation Response % control (platelets; platelet conc., 11 mW/cm^2 UVA 90 min, quencher 1.0 mM): 40 % control | Agqregation Response % control (platelets; [16]): 30 % control

Superoxide Dismutase
Aggregation Response % Control (platelets; platelet conc., 7.5 mW/cm^2 UVA 30 min, quencher 20 μg/ml): 85 % Control | Aggregation Response % Control (platelets; platelet conc., 7.5 mW/cm^2 UVA 30 min, quencher 100 μg/ml): 75 % Control | Aggregation Response % Control (platelets; platelet conc., 7.5 mW/cm^2 UVA 60 min, quencher 20 μg/ml): 50 % Control | Aggregation Response % Control (platelets; platelet conc., 7.5 mW/cm^2 UVA 60 min, quencher 100 μg/ml): 45 % Control | Aggregation Response % Control (platelets; platelet conc., 7.5 mW/cm^2 UVA 90 min, quencher 20 μg/ml): 30 % Control | Virus Inactivation (log10) Cell-Free VSV [1]: ≧6.0 log10 | Virus Kill (log10) M13 (bacteriophage M13): 3.9 log10

aluminum phthalocyanine tetrasulfonate [AlPcS4]
plasma K+ (RBCCs; with γ-irradiation 25 Gy, no rutin): 75 mM | plasma K+ (RBCCs; without γ-irradiation): 60 mM

sodium carpryl N-acetyl tryptophan [SCNAT]
Virus Kill (log10) M13 (bacteriophage M13): 1.6 log10
